# Test results from ChEMBL document CHEMBL4673293, “Trypanocidal activity of new 1,6-diphenyl-1H-pyrazolo[3,4-b]pyridine derivatives: Synthesis, in vitro and in vivo studies” (Bioorg Med Chem, 2021).
# Active and inactive are the calls of the source. The rule behind the calls is not given here.
# System: not listed separately
# Assay: Selectivity index, ratio of CC50 for monkey LLC-MK2 cells to IC50 for antitrypanosomal activity against intracellular amastigote form of Trypanosoma cruzi Tulahuen strain infected in monkey LLC-MK2 cells
# Type: toxicity, cell-based
# Conditions: read-out: Ratio CC50/IC50
row,Compound,selectivity ratio
1,CC(=O)Oc1ccc(C2OC(c3cc(-c4ccccc4)nc4c3c(C)nn4-c3ccccc3)=NN2C(C)=O)cc1 (stereo not drawn),2.86
2,CC(=O)N1N=C(c2cc(-c3ccccc3)nc3c2c(C)nn3-c2ccccc2)OC1c1ccc(O)cc1 (stereo not drawn),1.94
3,Cc1nn(-c2ccccc2)c2nc(-c3ccccc3)cc(C(=O)N/N=C/c3ccc(O)cc3)c12,> 250
4,CC(=O)Oc1ccccc1C1OC(c2cc(-c3ccccc3)nc3c2c(C)nn3-c2ccccc2)=NN1C(C)=O (stereo not drawn),> 90.1
5,COc1ccc(/C=N/NC(=O)c2cc(-c3ccccc3)nc3c2c(C)nn3-c2ccccc2)cc1O,2.52
6,Cc1nn(-c2ccccc2)c2nc(-c3ccccc3)cc(C(=O)N/N=C/c3ccccc3O)c12,> 235
7,O=C(Cn1ccnc1[N+](=O)[O-])NCc1ccccc1 [BENZNIDAZOLE],> 50.2
8,CC(=O)N1N=C(c2cc(-c3ccccc3)nc3c2c(C)nn3-c2ccccc2)OC1c1cccc(O)c1 (stereo not drawn),1.63
9,Cc1nn(-c2ccccc2)c2nc(-c3ccccc3)cc(C(=O)N/N=C/c3ccc(O)c(O)c3)c12,3.11
10,CC(=O)Oc1ccc(C2OC(c3cc(-c4ccccc4)nc4c3c(C)nn4-c3ccccc3)=NN2C(C)=O)cc1OC(C)=O (stereo not drawn),1.6
11,CC(=O)Oc1cccc(C2OC(c3cc(-c4ccccc4)nc4c3c(C)nn4-c3ccccc3)=NN2C(C)=O)c1 (stereo not drawn),> 6.15
12,Cc1nn(-c2ccccc2)c2nc(-c3ccccc3)cc(C(=O)N/N=C/c3cccc(O)c3)c12,3

# System: not listed separately
# Assay: Renal toxicity in BALB/c mouse infected with blood trypomastigote form of Trypanosoma cruzi strain Y assessed as creatinine level in plasma at 25 mg/kg, po administered via gavage daily for 15 days starting from 2 days post-infection and measured on 16th day post-infection
# Type: organism-based
# Conditions: in vivo, 360 h, time 15 day
row,Compound,Activity
1,CC(=O)Oc1ccccc1C1OC(c2cc(-c3ccccc3)nc3c2c(C)nn3-c2ccccc2)=NN1C(C)=O (stereo not drawn),Non-Toxic
2,Cc1nn(-c2ccccc2)c2nc(-c3ccccc3)cc(C(=O)N/N=C/c3ccccc3O)c12,Non-Toxic
3,O=C(Cn1ccnc1[N+](=O)[O-])NCc1ccccc1 [BENZNIDAZOLE],Non-Toxic

# System: Trypanosoma cruzi
# Assay: Antitrypanosomal activity against blood trypomastigote form of Trypanosoma cruzi strain Y infected in BALB/c mouse assessed as reduction in parasite DNA load in host heart at 25 mg/kg, po administered via gavage daily for 15 days starting from 2 days post-infection and measured on 16th day post-infection by qPCR analysis relative to control
# Type: functional
# Conditions: 360 h, time 15 day
row,Compound,inhibition in vivo at 25 mg/kg [%]
1,O=C(Cn1ccnc1[N+](=O)[O-])NCc1ccccc1 [BENZNIDAZOLE],99

# Same assay, conditions: time 15.0 day
row,Compound,Activity
1,CC(=O)Oc1ccccc1C1OC(c2cc(-c3ccccc3)nc3c2c(C)nn3-c2ccccc2)=NN1C(C)=O (stereo not drawn),inactive
2,Cc1nn(-c2ccccc2)c2nc(-c3ccccc3)cc(C(=O)N/N=C/c3ccccc3O)c12,inactive

# System: not listed separately
# Assay: Cytotoxicity against monkey LLC-MK2 cells assessed as reduction in cell viability incubated for 72 hrs by MTT assay
# Type: cell-based, Macaca mulatta
# Conditions: rhesus monkey
row,Compound,CC50 at 72 h [µM]
1,CC(=O)Oc1ccc(C2OC(c3cc(-c4ccccc4)nc4c3c(C)nn4-c3ccccc3)=NN2C(C)=O)cc1 (stereo not drawn),64.8
2,CC(=O)N1N=C(c2cc(-c3ccccc3)nc3c2c(C)nn3-c2ccccc2)OC1c1ccc(O)cc1 (stereo not drawn),34.4
3,Cc1nn(-c2ccccc2)c2nc(-c3ccccc3)cc(C(=O)N/N=C/c3ccc(O)cc3)c12,> 250
4,CC(=O)Oc1ccccc1C1OC(c2cc(-c3ccccc3)nc3c2c(C)nn3-c2ccccc2)=NN1C(C)=O (stereo not drawn),> 100
5,COc1ccc(/C=N/NC(=O)c2cc(-c3ccccc3)nc3c2c(C)nn3-c2ccccc2)cc1O,53
6,Cc1nn(-c2ccccc2)c2nc(-c3ccccc3)cc(C(=O)N/N=C/c3ccccc3O)c12,> 200
7,O=C(Cn1ccnc1[N+](=O)[O-])NCc1ccccc1 [BENZNIDAZOLE],> 200
8,CC(=O)N1N=C(c2cc(-c3ccccc3)nc3c2c(C)nn3-c2ccccc2)OC1c1cccc(O)c1 (stereo not drawn),17.2
9,Cc1nn(-c2ccccc2)c2nc(-c3ccccc3)cc(C(=O)N/N=C/c3ccc(O)c(O)c3)c12,71.2
10,CC(=O)Oc1ccc(C2OC(c3cc(-c4ccccc4)nc4c3c(C)nn4-c3ccccc3)=NN2C(C)=O)cc1OC(C)=O (stereo not drawn),54.5
11,CC(=O)Oc1cccc(C2OC(c3cc(-c4ccccc4)nc4c3c(C)nn4-c3ccccc3)=NN2C(C)=O)c1 (stereo not drawn),> 100
12,Cc1nn(-c2ccccc2)c2nc(-c3ccccc3)cc(C(=O)N/N=C/c3cccc(O)c3)c12,69.6

# System: Trypanosoma cruzi
# Assay: Antitrypanosomal activity against blood trypomastigote form of Trypanosoma cruzi strain Y infected in BALB/c mouse assessed as reduction in amastigote nest in host heart at 25 mg/kg, po administered via gavage daily for 15 days starting from 2 days post-infection and measured on 16th day post-infection by haematoxylin and eosin staining based microscopic analysis
# Type: functional
# Conditions: 360 h, time 15 day
row,Compound,inhibition in vivo at 25 mg/kg [%]
1,CC(=O)Oc1ccccc1C1OC(c2cc(-c3ccccc3)nc3c2c(C)nn3-c2ccccc2)=NN1C(C)=O (stereo not drawn),57
2,O=C(Cn1ccnc1[N+](=O)[O-])NCc1ccccc1 [BENZNIDAZOLE],100

# Same assay, conditions: time 15.0 day
row,Compound,Activity
1,Cc1nn(-c2ccccc2)c2nc(-c3ccccc3)cc(C(=O)N/N=C/c3ccccc3O)c12,inactive

# System: Trypanosoma cruzi
# Assay: Antitrypanosomal activity against blood trypomastigote form of Trypanosoma cruzi strain Y infected in BALB/c mouse assessed as reduction in parasitemia at 25 mg/kg, po administered via gavage daily for 15 days starting from 2 days post-infection and measured on 7th day post-infection by optical microscopy relative to control
# Type: functional
# Conditions: 360 h, time 15 day
row,Compound,inhibition in vivo at 25 mg/kg [%]
1,CC(=O)Oc1ccccc1C1OC(c2cc(-c3ccccc3)nc3c2c(C)nn3-c2ccccc2)=NN1C(C)=O (stereo not drawn),46.1
2,Cc1nn(-c2ccccc2)c2nc(-c3ccccc3)cc(C(=O)N/N=C/c3ccccc3O)c12,44.7

# System: Trypanosoma cruzi
# Assay: Potency index, ratio of benznidazole IC50 to test compound IC50 for antitrypanosomal activity against intracellular amastigote form of Trypanosoma cruzi Tulahuen strain infected in monkey LLC-MK2 cells assessed as reduction in parasite viability incubated for 72 hrs by beta-galactosidase reporter gene assay
# Type: functional
# Conditions: not given
row,Compound,Ratio IC50
1,Cc1nn(-c2ccccc2)c2nc(-c3ccccc3)cc(C(=O)N/N=C/c3ccccc3O)c12,4

# System: Trypanosoma cruzi
# Assay: Antitrypanosomal activity against blood trypomastigote form of Trypanosoma cruzi strain Y infected in BALB/c mouse assessed as reduction in parasitemia at 25 mg/kg, po administered via gavage daily for 15 days starting from 2 days post-infection and measured on 13th day post-infection by optical microscopy relative to control
# Type: functional
# Conditions: 360 h, time 15 day
row,Compound,inhibition in vivo at 25 mg/kg [%]
1,CC(=O)Oc1ccccc1C1OC(c2cc(-c3ccccc3)nc3c2c(C)nn3-c2ccccc2)=NN1C(C)=O (stereo not drawn),53
2,Cc1nn(-c2ccccc2)c2nc(-c3ccccc3)cc(C(=O)N/N=C/c3ccccc3O)c12,14.5

# System: not listed separately
# Assay: Hepatotoxicity in BALB/c mouse infected with blood trypomastigote form of Trypanosoma cruzi strain Y assessed as AST level in plasma at 25 mg/kg, po administered via gavage daily for 15 days starting from 2 days post-infection and measured on 16th day post-infection
# Type: toxicity, organism-based
# Conditions: in vivo, 360 h, time 15 day
row,Compound,Activity
1,CC(=O)Oc1ccccc1C1OC(c2cc(-c3ccccc3)nc3c2c(C)nn3-c2ccccc2)=NN1C(C)=O (stereo not drawn),Non-Toxic
2,Cc1nn(-c2ccccc2)c2nc(-c3ccccc3)cc(C(=O)N/N=C/c3ccccc3O)c12,Non-Toxic
3,O=C(Cn1ccnc1[N+](=O)[O-])NCc1ccccc1 [BENZNIDAZOLE],Non-Toxic

# System: not listed separately
# Assay: Hepatotoxicity in BALB/c mouse infected with blood trypomastigote form of Trypanosoma cruzi strain Y assessed as ALT level in plasma at 25 mg/kg, po administered via gavage daily for 15 days starting from 2 days post-infection and measured on 16th day post-infection
# Type: toxicity, organism-based
# Conditions: in vivo, 360 h, time 15 day
row,Compound,Activity
1,CC(=O)Oc1ccccc1C1OC(c2cc(-c3ccccc3)nc3c2c(C)nn3-c2ccccc2)=NN1C(C)=O (stereo not drawn),Non-Toxic
2,Cc1nn(-c2ccccc2)c2nc(-c3ccccc3)cc(C(=O)N/N=C/c3ccccc3O)c12,Non-Toxic
3,O=C(Cn1ccnc1[N+](=O)[O-])NCc1ccccc1 [BENZNIDAZOLE],Non-Toxic

# System: not listed separately
# Assay: Cardiac toxicity in BALB/c mouse infected with blood trypomastigote form of Trypanosoma cruzi strain Y assessed as CK-MB level in plasma at 25 mg/kg, po administered via gavage daily for 15 days starting from 2 days post-infection and measured on 16th day post-infection
# Type: organism-based
# Conditions: in vivo, 360 h, time 15 day
row,Compound,Activity
1,CC(=O)Oc1ccccc1C1OC(c2cc(-c3ccccc3)nc3c2c(C)nn3-c2ccccc2)=NN1C(C)=O (stereo not drawn),Non-Toxic
2,Cc1nn(-c2ccccc2)c2nc(-c3ccccc3)cc(C(=O)N/N=C/c3ccccc3O)c12,Toxic
3,O=C(Cn1ccnc1[N+](=O)[O-])NCc1ccccc1 [BENZNIDAZOLE],Non-Toxic

# System: not listed separately
# Assay: Reduction in inflammatory cell infiltration in heart of BALB/c mouse infected with blood trypomastigote form of Trypanosoma cruzi strain Y at 25 mg/kg, po administered via gavage daily for 15 days starting from 2 days post-infection and measured on 16th day post-infection by haematoxylin and eosin staining based microscopic analysis relative to control
# Type: functional
# Conditions: 360 h, time 15 day
row,Compound,inhibition in vivo at 25 mg/kg [%]
1,CC(=O)Oc1ccccc1C1OC(c2cc(-c3ccccc3)nc3c2c(C)nn3-c2ccccc2)=NN1C(C)=O (stereo not drawn),51
2,Cc1nn(-c2ccccc2)c2nc(-c3ccccc3)cc(C(=O)N/N=C/c3ccccc3O)c12,62.5
3,O=C(Cn1ccnc1[N+](=O)[O-])NCc1ccccc1 [BENZNIDAZOLE],76

# System: Trypanosoma cruzi
# Assay: Antitrypanosomal activity against intracellular amastigote form of Trypanosoma cruzi Tulahuen strain infected in monkey LLC-MK2 cells assessed as reduction in parasite viability incubated for 72 hrs by beta-galactosidase reporter gene assay
# Type: functional, organism-based
# Conditions: Trypanosoma cruzi, Tulahuen, LLC-MK2, 72 h; read-out: IC50
row,Compound,IC50 [µM]
1,CC(=O)Oc1ccc(C2OC(c3cc(-c4ccccc4)nc4c3c(C)nn4-c3ccccc3)=NN2C(C)=O)cc1 (stereo not drawn),22.6
2,CC(=O)N1N=C(c2cc(-c3ccccc3)nc3c2c(C)nn3-c2ccccc2)OC1c1ccc(O)cc1 (stereo not drawn),17.7
3,Cc1nn(-c2ccccc2)c2nc(-c3ccccc3)cc(C(=O)N/N=C/c3ccc(O)cc3)c12,21.4
4,CC(=O)Oc1ccccc1C1OC(c2cc(-c3ccccc3)nc3c2c(C)nn3-c2ccccc2)=NN1C(C)=O (stereo not drawn),1.11
5,COc1ccc(/C=N/NC(=O)c2cc(-c3ccccc3)nc3c2c(C)nn3-c2ccccc2)cc1O,21
6,Cc1nn(-c2ccccc2)c2nc(-c3ccccc3)cc(C(=O)N/N=C/c3ccccc3O)c12,0.85
7,O=C(Cn1ccnc1[N+](=O)[O-])NCc1ccccc1 [BENZNIDAZOLE],3.98
8,CC(=O)N1N=C(c2cc(-c3ccccc3)nc3c2c(C)nn3-c2ccccc2)OC1c1cccc(O)c1 (stereo not drawn),10.5
9,Cc1nn(-c2ccccc2)c2nc(-c3ccccc3)cc(C(=O)N/N=C/c3ccc(O)c(O)c3)c12,22.9
10,CC(=O)Oc1ccc(C2OC(c3cc(-c4ccccc4)nc4c3c(C)nn4-c3ccccc3)=NN2C(C)=O)cc1OC(C)=O (stereo not drawn),33.9
11,CC(=O)Oc1cccc(C2OC(c3cc(-c4ccccc4)nc4c3c(C)nn4-c3ccccc3)=NN2C(C)=O)c1 (stereo not drawn),16.2
12,Cc1nn(-c2ccccc2)c2nc(-c3ccccc3)cc(C(=O)N/N=C/c3cccc(O)c3)c12,23.2

# Same assay, conditions: llc-mk2
row,Compound,IC50
1,COc1ccc(C2OC(c3cc(-c4ccccc4)nc4c3c(C)nn4-c3ccccc3)=NN2C(C)=O)cc1OC(C)=O (stereo not drawn),Nd(Insoluble)
